From patent publication US20030013770A1, “Aminobenzophenones as inhibitors of il 1b and tnf” (priority 2001, published 2003)

Legend:
Type in all cases: cell-based
[1] = system: IL-1β; test: Inhibition of IL-1β secretion in LPS stimulated peripheral blood mononuclear cells; conditions: PBMC; LPS stimulated human peripheral blood mononuclear cells; 18 hours; ELISA of medium; read-out: The median inhibition concentration (IC50, nM) of IL-1β
Protocol: (§1) To study the effect of the compound of the present invention in vitro the inhibition of the IL-1β and TNF-α secretion was measured using the following procedure:
(§2) Cytokine production was measured in the media from lipopolysaccharide (LPS) stimulated peripheral blood mononuclear cells. The mononuclear cells were isolated from human peripheral blood by Lymphoprep® (Nycomed, Norway) fractionation and suspended in RPMI 1640 (growth medium) with foetal calf serum (FCS, 2%), at a concentration of 5×10^5 cells/ml. The cells were incubated in 24-well tissue culture plates in 1 ml aliquots. Test compounds were dissolved in dimethylsulfoxide (DMSO, 10 mM) and were diluted with the medium. Compounds were added to the cells for 30 minutes, then LPS ([…] final concentration) was added. The plates were incubated for 18 hours, and the concentration of IL-1β and TNF-α in the medium was determined by enzyme-linked immunosorbent assays. The median inhibitory concentrations (IC50) of the compounds were calculated.

[2] = system: TNF-α; test: Inhibition of TNF-α secretion in LPS stimulated peripheral blood mononuclear cells; conditions: PBMC; LPS stimulated human peripheral blood mononuclear cells; 18 hours; ELISA of medium; read-out: The median inhibition concentration (IC50, nM) of TNF-α
Protocol: as §1, §2

[3] = system: PMN-superoxide; test: Inhibition of PMN (polymorphonuclear) superoxide secretion; conditions: human PMN granulocytes primed with TNF-α, stimulated with fMLP; reduction of ferricytochrome C; read-out: The median inhibition concentration (IC50, nM) of PMN-superoxide
Protocol: The compounds of the present invention also show similar activities in the ability to inhibit PMN (polymorphonuclear) superoxide secretion which is also indicative of potentially useful anti-inflammatory drugs. The compounds were tested using the following procedure:
Human polymorphonuclear (PMN) granulocytes were isolated from human blood by dextran sedimentation, Lymphoprep® fractionation and hypotonic lysis of contaminating erythrocytes. Superoxide anion generation was measured as the superoxide dismutase inhibitable reduction of ferricytochrome C (Madhu, S. B. et al, Inflammation, 16, 241, (1992)). The cells were suspended in Hanks' balanced salt solution, and incubated for 10 minutes at 37° C. with test compounds. The cells were primed by the addition of TNF-α (3 ng/ml final concentration) for 10 minutes, and then ferricytochrome C, (final concentration 750 μg/ml), bovine serum albumin (BSA, final concentration 1 mg/ml) and formyl-methionyl-leucyl-phenylalanine (fMLP, final concentration 10^−7 M) were added for 3 minutes. The cells were chilled on ice, and were spun down. The optical densities in the cell-free supernatant was measured in a spectrophotometer. The median inhibitory concentration (IC50) of the compounds was calculated.

Cc1ccccc1Nc1ccc(C(=O)c2ccccc2C)c(Cl)c1 [Compound 102, 2-Chloro-2′-methyl-4-(2-methyl-phenylamino)benzophenone]
IC50 [1]: 13 nM | IC50 [2]: 4 nM | IC50 [3]: 6.3 nM

Cc1ccccc1C(=O)c1ccc(Nc2ccccc2F)cc1Cl [Compound 105, 2-Chloro-4-(2-fluoro-phenylamino)-2′-methylbenzophenone]
IC50 [1]: 25 nM | IC50 [2]: 4 nM | IC50 [3]: 13 nM

Cc1ccccc1C(=O)c1ccc(Nc2cccc(Cl)c2)cc1Cl [Compound 109, 2-Chloro-4-(3-chloro-phenylamino)-2′-methylbenzophenone]
IC50 [1]: 50 nM | IC50 [2]: 7.9 nM | IC50 [3]: 20 nM

Cc1cc(F)ccc1Nc1ccc(C(=O)c2ccccc2C)c(Cl)c1 [Compound 116, 2-Chloro-4-(4-fluoro-2-methyl-phenylamino)-2′-methylbenzophenone]
IC50 [1]: 32 nM | IC50 [2]: 7.9 nM | IC50 [3]: 3.7 nM

Cc1ccccc1C(=O)c1ccc(Nc2ccc(Cl)cc2)cc1Cl [Compound 119, 2-Chloro-4-(4-chloro-phenylamino)-2′-methylbenzophenone]
IC50 [1]: 40 nM | IC50 [2]: 16 nM | IC50 [3]: 5 nM

Cc1ccc(F)cc1Nc1ccc(C(=O)c2ccccc2C)c(Cl)c1 [Compound 130, 2-Chloro-4-(5-fluoro-2-methyl-phenylamino)-2′-methylbenzophenone]
IC50 [1]: 40 nM | IC50 [2]: 6.3 nM | IC50 [3]: 50 nM

Cc1ccccc1C(=O)c1ccc(Nc2cccc(F)c2C)cc1Cl [Compound 131, 2-Chloro-4-(3-fluoro-2-methyl-phenylamino)-2′-methylbenzophenone]
IC50 [1]: 13 nM | IC50 [2]: 4 nM | IC50 [3]: 13 nM

Cc1cc(Br)ccc1Nc1ccc(C(=O)c2ccccc2C)c(Cl)c1 [Compound 136, 4-(4-Bromo-2-methyl-phenylamino)-2-chloro-2′-methylbenzophenone]
IC50 [1]: 100 nM | IC50 [2]: 8 nM | IC50 [3]: 100 nM

Cc1ccccc1C(=O)c1ccc(Nc2ccccc2N)cc1Cl [ref. A), 4-(2-Aminophenylamino)-2-chloro-2′-methylbenzophenone, reference compound]
IC50 [1]: 13 nM | IC50 [2]: 7.1 nM | IC50 [3]: 5 nM
